From patent publication US12421225B2, “Heteroaromatic amide derivative and medicament containing the same” (KAKEN PHARMACEUTICAL CO., LTD., priority 2018, dated 2025)

Each compound was assayed against human Nav1.7 (Homo sapiens (Human), UniProt Q15858) (assay: Human Nav1.7 inhibitory activity evaluation (automated patch clamp QPatch16X, HEK293A cells stably expressing human Nav1.7 and human Navβ1)). Details: HEK293A cells stably expressing human Nav1.7 and human Navβ1, automated patch clamp QPatch16X.
Chain of human Nav1.7 (Q15858 whole entry): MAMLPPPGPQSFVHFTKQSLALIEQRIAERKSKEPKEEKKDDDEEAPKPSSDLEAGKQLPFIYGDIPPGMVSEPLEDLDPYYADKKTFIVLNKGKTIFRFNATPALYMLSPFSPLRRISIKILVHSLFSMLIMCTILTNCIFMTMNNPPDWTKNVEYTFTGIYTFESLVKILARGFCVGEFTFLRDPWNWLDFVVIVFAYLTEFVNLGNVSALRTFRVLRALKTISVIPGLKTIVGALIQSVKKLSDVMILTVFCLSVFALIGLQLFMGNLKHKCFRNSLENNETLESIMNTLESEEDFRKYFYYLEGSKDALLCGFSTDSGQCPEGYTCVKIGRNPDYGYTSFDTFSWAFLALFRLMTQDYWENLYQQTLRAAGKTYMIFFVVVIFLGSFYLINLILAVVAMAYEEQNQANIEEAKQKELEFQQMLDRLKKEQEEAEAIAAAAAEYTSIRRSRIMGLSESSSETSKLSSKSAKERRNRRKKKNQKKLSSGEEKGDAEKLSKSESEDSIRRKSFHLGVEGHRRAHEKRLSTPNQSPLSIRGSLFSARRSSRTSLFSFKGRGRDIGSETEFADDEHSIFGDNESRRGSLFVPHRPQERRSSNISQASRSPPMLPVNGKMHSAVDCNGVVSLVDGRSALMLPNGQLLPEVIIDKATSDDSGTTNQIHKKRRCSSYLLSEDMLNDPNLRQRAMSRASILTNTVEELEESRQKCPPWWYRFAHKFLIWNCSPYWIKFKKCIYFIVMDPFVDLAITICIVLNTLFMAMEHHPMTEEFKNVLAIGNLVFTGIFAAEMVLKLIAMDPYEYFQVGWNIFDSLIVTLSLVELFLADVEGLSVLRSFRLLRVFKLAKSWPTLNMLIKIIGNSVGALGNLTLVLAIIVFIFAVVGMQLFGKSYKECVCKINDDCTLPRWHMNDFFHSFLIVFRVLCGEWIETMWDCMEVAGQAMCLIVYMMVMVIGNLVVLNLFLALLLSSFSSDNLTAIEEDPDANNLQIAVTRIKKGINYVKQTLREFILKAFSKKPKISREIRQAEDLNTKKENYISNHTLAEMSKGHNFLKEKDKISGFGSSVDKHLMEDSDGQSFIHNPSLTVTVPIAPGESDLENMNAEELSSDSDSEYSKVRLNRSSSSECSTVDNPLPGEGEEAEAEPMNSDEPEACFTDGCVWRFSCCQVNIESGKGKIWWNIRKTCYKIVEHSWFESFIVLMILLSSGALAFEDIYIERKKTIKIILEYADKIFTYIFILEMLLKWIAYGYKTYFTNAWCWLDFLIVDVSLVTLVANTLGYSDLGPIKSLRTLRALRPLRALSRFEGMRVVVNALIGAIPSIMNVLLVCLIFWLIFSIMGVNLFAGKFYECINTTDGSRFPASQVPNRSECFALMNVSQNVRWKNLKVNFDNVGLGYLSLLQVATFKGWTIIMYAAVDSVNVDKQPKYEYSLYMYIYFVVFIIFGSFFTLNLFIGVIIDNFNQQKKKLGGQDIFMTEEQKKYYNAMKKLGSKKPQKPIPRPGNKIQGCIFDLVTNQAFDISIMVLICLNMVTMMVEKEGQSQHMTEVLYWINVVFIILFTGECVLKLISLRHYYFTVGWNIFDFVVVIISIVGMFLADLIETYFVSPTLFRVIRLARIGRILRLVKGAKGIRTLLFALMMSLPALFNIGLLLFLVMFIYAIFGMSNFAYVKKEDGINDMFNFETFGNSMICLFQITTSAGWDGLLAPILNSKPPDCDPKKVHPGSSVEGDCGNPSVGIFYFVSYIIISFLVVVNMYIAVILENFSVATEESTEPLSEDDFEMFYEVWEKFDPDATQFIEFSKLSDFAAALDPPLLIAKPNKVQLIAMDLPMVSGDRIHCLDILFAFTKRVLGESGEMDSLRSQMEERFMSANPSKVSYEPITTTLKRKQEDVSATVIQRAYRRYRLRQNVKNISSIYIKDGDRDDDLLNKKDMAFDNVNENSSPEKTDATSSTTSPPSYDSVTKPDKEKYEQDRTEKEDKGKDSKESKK
Chain of human Nav1.7 (Q07699 19-218 partner): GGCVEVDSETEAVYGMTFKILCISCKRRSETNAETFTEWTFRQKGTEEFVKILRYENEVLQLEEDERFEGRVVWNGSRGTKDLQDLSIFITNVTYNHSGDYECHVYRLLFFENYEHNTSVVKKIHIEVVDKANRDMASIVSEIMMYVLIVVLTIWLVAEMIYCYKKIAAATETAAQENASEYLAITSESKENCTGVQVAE
Format: cell-based
Procedure: Test Example 1: Human Nav1.7 Inhibitory Activity Evaluation
A cell line in which human Nav1.7 and human Navβ1 subunits were stably expressed in HEK293A cells was used. Dulbecco's Modified Eagle Medium (DMEM) supplemeted with 10% fetal bovine serum, 600 μg/ml geneticin, and 2 μg/ml blasticidin S were used as culture medium under the conditions of 37° C. and 5% CO2 in T175 flasks to carry out culturing. When 60-80% confluence was reached, the cells were detached and a cell suspension of about 0.5-5.0×10^6 cells/mL was prepared. The amount of current through human Nav1.7 was recorded using a fully automatic patch clamp device QPatch16X (Sophion Biosciences) at room temperature. As the extracellular solution, the solution of 145 mM NaCl, 4 mM KCl, 1 mM MgCl2, 2 mM CaCl2, 10 mM Glucose, 10 mM 4-(2-hydroxyethyl)-1-piperazine ethanesulfonic acid (HEPES) at pH 7.4 was used. As the intracellular solution, the solution of 135 mM CsF, ⅕ mM glycol ether diaminetetraacetic acid (EGTA)/CsOH, 10 mM HEPES, 10 mM NaCl at pH 7.3 was used. The test compounds were dissolved in dimethyl sulfoxide (DMSO) and diluted with the extracellular solution to attain the DMSO concentration of 0.1% at the time of assay.
The current response was obtained at a sampling frequency of 25 kHz, and noise was removed with a 3 kHz low-pass filter. The holding potential was −100 mV. Correction of the leakage current was carried out by applying a step pulse of −120 mV before the test pulse. In order to investigate inhibitory action of the test compound, the following test pulse was given: Namely, after depolarizing pulse of −10 mV was applied for 50 milliseconds, it was fixed at −120 mV for 500 milliseconds; a potential at which about 30-40% of the channel was inactivated was maintained for 15 seconds, then fixed again at −120 mV for 100 milliseconds, and finally a −10 mV depolarization pulse was given for 50 milliseconds. Test pulses were given before and after the test compound addition.
The inhibitory activity of the test compound was determined based on the amount of inward current generated by the second depolarization pulse, and the 50% inhibitory concentration (IC50) was calculated from the concentration-response curve.

IC50 [µM] | Compound
< 1 | C[C@@H]1CCn2nc(C(=O)N[C@H]3COc4ccc(Br)cc4C3)cc2O1 [Example 89]
< 1 | N#Cc1ccc2c(c1)C[C@@H](NC(=O)c1cc3n(n1)CCC(CC1CC1)O3)CO2 (single isomer, unassigned) [97 (isomer A)]
< 10 | O=C(N[C@H]1COc2ccc(CC(F)F)cc2C1)c1cc2n(n1)CCC(COC(F)F)O2 (single isomer, unassigned) [138 (isomer B)]
< 1 | N#Cc1ccc2c(c1)C[C@@H](NC(=O)c1cc3n(n1)CCC(COCc1cccc(F)c1)O3)CO2 (some centres unmarked) [Example 104]
< 10 | N#Cc1ccc(-c2ccc3c(c2)C[C@@H](NC(=O)c2cc4n(n2)CCC(COCC(F)(F)F)O4)CO3)cn1 (some centres unmarked) [Example 132]

Same assay, conditions: human Nav1.7, automated patch clamp

IC50 [µM] | Compound
< 10 | CC1(COCC2CC2)CCn2nc(C(=O)N[C@H]3COc4ccc(C#N)cc4C3)cc2O1 (some centres unmarked) [Example 419]
< 1 | O=C(N[C@H]1COc2ccc(CC(F)(F)F)cc2C1)c1cc2n(n1)CC(CCN1CCC(F)(F)C1)O2 (single isomer, unassigned) [241 (isomer A)]
< 10 | O=C(NC1COc2ccc3ncccc3c2C1)c1cc2n(n1)CCC(c1ccccc1F)O2 (centres unmarked) [Example 363]
< 10 | COC(C)(C)C#Cc1ccc2c(c1)C[C@@H](NC(=O)c1cc3n(n1)CCC(C(F)(F)F)O3)CO2 (some centres unmarked) [Example 398]
< 10 | O=C(N[C@H]1COc2ccc(CCOC(F)(F)F)cc2C1)c1cc2n(n1)CC(CCN1CC(F)(F)C1)O2 (single isomer, unassigned) [240 (isomer B)]
< 1 | O=C(N[C@H]1COc2ccc(C(F)(F)F)cc2C1)c1nn2c(c1-c1ccn[nH]1)OCCC2 [Example 486]
< 10 | CC1(COCC2CC2)Cn2nc(C(=O)N[C@H]3COc4ccc(C#N)cc4C3)cc2O1 (some centres unmarked) [Example 618]
< 1 | O=C(N[C@H]1COc2ccc(COCC(F)(F)F)cc2C1)c1cc2n(n1)CCC(OCC(F)(F)F)CO2 (some centres unmarked) [Example 482]
< 1 | O=C(N[C@H]1COc2ccc(CC(F)(F)F)cc2C1)c1cc2n(n1)CC(COCC(F)(F)F)O2 (some centres unmarked) [Example 191]
< 1 | O=C(N[C@H]1COc2ccc(Cl)cc2C1)c1cc2n(n1)CCC(C#CC1CC1)O2 (some centres unmarked) [Example 406]
< 10 | O=C(N[C@H]1COc2ccc(C(F)(F)F)cc2C1)c1nc2n(c1-c1cccnc1OCC(F)(F)F)CCOC2 [Example 346]
< 1 | O=C(N[C@H]1COc2ccc(COCC(F)(F)F)cc2C1)c1cc2n(n1)CC(CC1CCOCC1)O2 (mixture of isomers) [Example 605]
< 1 | N#Cc1ccc2c(c1)C[C@@H](NC(=O)c1cc3n(n1)CC(CCn1cc(C(F)(F)F)cn1)O3)CO2 (some centres unmarked) [Example 455]
< 10 | O=C(NC1COc2c(F)cc(F)cc2C1)c1cc2n(n1)CCC(c1ccccc1)O2 (centres unmarked) [Example 354]
< 1 | C#Cc1ccc2c(c1)C[C@@H](NC(=O)c1cc3n(n1)CCC(COCC(F)(F)F)O3)CO2 (some centres unmarked) [Example 436]
< 10 | O=C(N[C@H]1COc2ccc(Cl)cc2C1)c1cc2n(n1)CCC(OCCOCC(F)(F)F)CO2 (some centres unmarked) [Example 682]
< 1 | O=C(N[C@H]1COc2ccc(CC(F)F)cc2C1)c1cc2n(n1)CC(CCOCC(F)F)O2 (some centres unmarked) [Example 478]
< 10 | O=C(N[C@H]1COc2ccc(C(F)(F)F)cc2C1)c1cc2n(n1)CCC(C(F)F)O2 (single isomer, unassigned) [161 (isomer B)]
< 10 | N#Cc1ccc2c(c1)C[C@@H](NC(=O)c1cc3n(n1)CC(CCCOC(F)F)O3)CO2 (single isomer, unassigned) [248 (isomer B)]
< 1 | O=C(N[C@H]1COc2ccc(COCC(F)(F)F)cc2C1)c1cc2n(n1)CCC1(CC1)CO2 [Example 545]
< 1 | O=C(N[C@H]1COc2ccc(CCOC(F)F)cc2C1)c1cc2n(n1)CC(CCN1CC(F)(F)C1)O2 (single isomer, unassigned) [238 (isomer A)]
< 1 | O=C(N[C@H]1COc2ccc(C(F)(F)F)cc2C1)c1nn2c(c1-c1cccc(CC(F)(F)F)n1)COCC2 [Example 523]
< 1 | CCc1cccc(-c2c(C(=O)N[C@H]3COc4ccc(C(F)(F)F)cc4C3O)nn3c2COCC3)n1 (some centres unmarked) [Example 581]
< 10 | COc1cc(C2(N3CCn4nc(C(=O)N[C@H]5COc6ccc(C#N)cc6C5)cc4C3)CC2)ccn1 [Example 286]
< 1 | O=C(N[C@H]1COc2ccc(COCC(F)(F)F)cc2C1)c1cc2n(n1)CCC(COCC(F)F)O2 (some centres unmarked) [Example 635]
< 1 | O=C(N[C@H]1COc2ccc(CC(F)F)cc2C1)c1cc2n(n1)CC(CCOC(F)(F)F)O2 (single isomer, unassigned) [211 (isomer A)]
< 1 | N#Cc1ccc2c(c1)C[C@@H](NC(=O)c1nc3n(c1-c1cccc(Cl)n1)CCOC3)CO2 [Example 341]

IC50 [µM] | Compound
< 10 | N#Cc1ccc2c(c1)C(F)[C@@H](NC(=O)c1cc3n(n1)CCC(COCC1CC1)O3)CO2 (single isomer, unassigned) [617 (isomer B)]
< 10 | O=C(N[C@H]1COc2ccc(C(F)(F)F)cc2C1)c1cc2n(n1)CCN(CC1CCOCC1)C2 [Example 653]
< 1 | O=C(N[C@H]1COc2ccc(C(F)(F)F)cc2C1)c1cc2n(n1)CCC(COCCOCC(F)(F)F)O2 (some centres unmarked) [Example 663]
< 10 | COc1ncccc1-c1ccc2c(c1)C[C@@H](NC(=O)c1cc3n(n1)CCC(C(F)(F)F)O3)CO2 (some centres unmarked) [Example 377]
< 1 | O=C(N[C@H]1COc2ccc(Cl)cc2C1)c1cc2n(n1)CCC(COCCOCC(F)(F)F)O2 (some centres unmarked) [Example 662]
< 10 | O=C(N[C@H]1COc2ccc(Cl)cc2C1)c1cc2n(n1)CC(Cn1cccn1)O2 (some centres unmarked) [Example 453]
< 1 | O=C(N[C@H]1COc2ccc(CCOCC(F)(F)F)cc2C1)c1cc2n(n1)CCC(C(F)(F)F)O2 (some centres unmarked) [Example 397]
< 10 | O=C(N[C@H]1COc2ccc(C(F)(F)F)cc2C1O)c1cc2n(n1)CCC(C(F)F)O2 (single isomer, unassigned) [534 (isomer B)]
< 1 | O=C(N[C@H]1COc2ccc(C(F)(F)F)cc2C1O)c1cc2n(n1)CC(CCCOCC(F)(F)F)O2 (some centres unmarked) [Example 591]
< 10 | CC(C)(F)C1CCn2nc(C(=O)N[C@H]3COc4ccc(C#N)cc4C3)cc2O1 (single isomer, unassigned) [547 (isomer B)]
< 10 | O=C(N[C@H]1COc2ccc(C(F)(F)F)cc2C1O)c1cc2n(n1)CC(CCCOCC(F)F)O2 (single isomer, unassigned) [610 (isomer B)]
< 1 | O=C(N[C@H]1COc2ccc(-c3cnccn3)cc2C1)c1cc2n(n1)CC(CCOC1CCC1)O2 (some centres unmarked) [Example 474]
< 10 | N#Cc1c(C(=O)N[C@H]2COc3ccccc3C2)nc2n1CC(C(F)(F)F)CC2 (some centres unmarked) [Example 300]
< 10 | O=C(N[C@H]1COc2ccc(Cl)cc2C1)c1cc2n(n1)CCC1(CCOCC1)O2 [Example 416]
< 1 | O=C(N[C@H]1COc2ccc(C(F)(F)F)cc2C1O)c1cc2n(n1)CC(CCOCC1CC1)O2 (some centres unmarked) [Example 595]
< 1 | O=C(N[C@H]1COc2ccc(Cl)cc2C1)c1cc2n(n1)CCC(C1CCOC1)O2 (some centres unmarked) [Example 611]
< 10 | O=C(N[C@H]1COc2ccc(CC(F)F)cc2C1)c1cc2n(n1)CCC(C1CCCO1)O2 (some centres unmarked) [Example 668]
< 10 | O=C(N[C@H]1COc2ccc(Cl)cc2C1)c1cc2n(n1)CCCC(c1ccccc1)O2 (some centres unmarked) [Example 480]
< 10 | O=C(NC1COc2ccccc2C1)c1cc2n(n1)CCN(S(=O)(=O)c1ccccc1C(F)(F)F)C2 (centres unmarked) [Example 511]
< 10 | O=C(N[C@H]1COc2ccc(C(F)(F)F)cc2C1O)c1cc2n(n1)CC(CCOCC(F)(F)F)O2 (single isomer, unassigned) [600 (isomer A)]
< 10 | O=C(c1cn2c(n1)CCC(c1cccc(N3CCCC3)n1)C2)N1CCC(c2ccccc2)C1 (centres unmarked) [Example 310]
< 10 | CC1(C)Cn2nc(C(=O)N[C@H]3COc4ccc(C(F)(F)F)cc4C3)c(-c3ccn[nH]3)c2O1 [Example 250]
< 1 | O=C(N[C@H]1COc2ccc(C(F)(F)F)cc2C1O)c1cc2n(n1)CC(CCCOCC(F)F)O2 (some centres unmarked) [Example 607]
< 10 | N#Cc1ccc2c(c1)C[C@@H](NC(=O)c1cc3n(n1)CCC(C(F)(F)F)CO3)CO2 (some centres unmarked) [Example 483]
< 1 | O=C(N[C@H]1COc2ccc(COCC(F)(F)F)cc2C1)c1cc2n(n1)CC(COCCOCC(F)(F)F)O2 (some centres unmarked) [Example 661]
< 10 | CC1Oc2cc(C(=O)N[C@H]3COc4ccc(Cl)cc4C3)nn2CC1(F)F (some centres unmarked) [Example 385]
< 1 | O=C(N[C@H]1COc2ccc(CC(F)(F)F)cc2C1)c1cc2n(n1)CC(CCOCC(F)F)O2 (some centres unmarked) [Example 479]
